In ChEMBL document CHEMBL1139648, “Designing rapid onset selective serotonin re-uptake inhibitors. Part 1: Structure-activity relationships of substituted (1S,4S)-4-(3,4-dichlorophenyl)-N-methyl-1,2,3,4-tetrahydro-1-naphthaleneamine” (Bioorg Med Chem Lett, 2006):

How the values were obtained:
[1] = molecular target: Sodium-dependent noradrenaline transporter (Homo sapiens, UniProt P23975); assay: Inhibition of noradrenaline re-uptake at human noradrenaline transporter expressed in HEK293 cells; type: cell-based
Sodium-dependent noradrenaline transporter, sequence (P23975 whole entry): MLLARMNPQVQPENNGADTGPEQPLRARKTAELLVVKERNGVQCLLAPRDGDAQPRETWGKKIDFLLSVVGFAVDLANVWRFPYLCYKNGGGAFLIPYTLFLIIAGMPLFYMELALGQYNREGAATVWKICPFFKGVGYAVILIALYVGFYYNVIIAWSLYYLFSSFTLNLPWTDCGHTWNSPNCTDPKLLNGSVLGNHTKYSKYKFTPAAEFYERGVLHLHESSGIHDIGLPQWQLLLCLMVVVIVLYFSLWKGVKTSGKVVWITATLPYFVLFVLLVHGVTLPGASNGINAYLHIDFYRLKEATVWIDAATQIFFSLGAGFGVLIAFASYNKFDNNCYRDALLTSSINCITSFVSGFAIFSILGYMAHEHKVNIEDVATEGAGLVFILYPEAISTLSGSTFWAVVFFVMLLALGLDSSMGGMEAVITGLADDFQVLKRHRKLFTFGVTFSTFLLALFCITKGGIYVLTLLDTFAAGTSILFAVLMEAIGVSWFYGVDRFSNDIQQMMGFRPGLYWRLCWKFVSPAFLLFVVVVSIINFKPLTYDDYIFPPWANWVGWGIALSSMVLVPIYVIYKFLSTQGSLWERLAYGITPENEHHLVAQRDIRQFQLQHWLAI

[2] = Half life in human liver microsome; type: ADME; details: liver microsomes
Rattus norvegicus [3] = assay: Unbound volume of distribution in rat at 1 mg/kg, iv or 1 mg/kg, po; type: ADME, organism-based; details: in vivo
[4] = Volume of distribution in rat at 1 mg/kg, iv or 1 mg/kg, po; type: ADME, organism-based; details: in vivo, read-out: Vdss
[5] = Distribution coefficient of the compound, log D; type: physicochemical; details: octanol/water
[6] = Dissociation constant, pKa of the compound; type: physicochemical
[7] = Tmax in rat at 1 mg/kg, iv or 1 mg/kg, po; type: ADME, organism-based; details: in vivo
[8] = Half life in rat at 1 mg/kg, iv or 1 mg/kg, po; type: ADME, organism-based; details: in vivo
[9] = Half life in rat liver microsome; type: ADME; details: liver microsomes
[10] = Oral bioavailability in rat at 1 mg/kg, po; type: ADME, organism-based; details: in vivo
[11] = Oral bioavailability in rat at 5 mg/kg, po; type: ADME, organism-based; details: in vivo
[12] = Half life in rat at 3 mg/kg, iv or 5 mg/kg, po; type: ADME, organism-based; details: in vivo
[13] = Volume of distribution in rat at 3 mg/kg, iv or 5 mg/kg, po; type: ADME, organism-based; details: in vivo, read-out: Vdss
[14] = Blood clearance in rat in CNS penetration assay at 3 mg/kg, iv or 5 mg/kg, po; type: ADME, organism-based; details: whole blood
[15] = Tmax in rat at 3 mg/kg, iv or 5 mg/kg, po; type: ADME, organism-based; details: in vivo
Rattus norvegicus [16] = assay: Unbound volume of distribution in rat at 3 mg/kg, iv or 5 mg/kg, po; type: ADME, organism-based; details: in vivo

| SMILES | IC50 [1] [nM] | further results |
| --- | --- | --- |
| CN[C@H]1CC[C@@H](c2ccc(Cl)c(Cl)c2)c2cc(C(=O)O)ccc21 | 20300 |  |
| CN[C@H]1CC[C@@H](c2ccc(Cl)c(Cl)c2)c2ccc([N+](=O)[O-])cc21 | 2900 |  |
| CN[C@H]1CC[C@@H](c2ccc(Cl)c(Cl)c2)c2ccc(S(C)(=O)=O)cc21 | 2100 |  |
| CN[C@H]1CC[C@@H](c2ccc(Cl)c(Cl)c2)c2cc(C(N)=O)c(NS(C)(=O)=O)cc21 | 2100 |  |
| CN[C@H]1CC[C@@H](c2ccc(Cl)c(Cl)c2)c2ccccc21 [SERTRALINE] |  | half-life [2]: > 2 h; Vdu (Rattus norvegicus [3]): 1900 L/kg; Vd [4]: 52 L/kg; Log D [5]: 3.1; pKa [6]: 9.3; Tmax [7]: 4 h; half-life [8]: 5 h; half-life [9]: 0.383 h; bioavailability [10]: 51% |
| CN[C@H]1CC[C@@H](c2ccc(Cl)c(Cl)c2)c2ccc(S(=O)(=O)N(C)C)cc21 | 2700 |  |
| CN[C@H]1CC[C@@H](c2ccc(Cl)c(Cl)c2)c2ccc(CC(=O)O)cc21 | 9600 |  |
| CN[C@H]1CC[C@@H](c2ccc(Cl)c(Cl)c2)c2cc(S(C)(=O)=O)ccc21 | 4200 |  |
| CN[C@H]1CC[C@@H](c2ccc(Cl)c(Cl)c2)c2ccc([S+](C)[O-])cc21 (some centres not stated) | 2000 |  |
| CN[C@H]1CC[C@@H](c2ccc(Cl)c(Cl)c2)c2cc(C(=O)O)c(NS(C)(=O)=O)cc21 | 9100 |  |
| CN[C@H]1CC[C@@H](c2ccc(Cl)c(Cl)c2)c2cc(C(=O)N(C)C)ccc21 | 11500 |  |
| CNC(=O)c1ccc2c(c1)[C@@H](NC)CC[C@H]2c1ccc(Cl)c(Cl)c1 |  | logD [5]: 2.8; pKa [6]: 8.8 |
| CN[C@H]1CC[C@@H](c2ccc(Cl)c(Cl)c2)c2ccc(C#N)cc21 | 3200 |  |
| CNC(=O)c1ccc2c(c1)[C@H](c1ccc(Cl)c(Cl)c1)CC[C@@H]2NC | 5000 |  |
| CN[C@H]1CC[C@@H](c2ccc(Cl)c(Cl)c2)c2cc(S(N)(=O)=O)ccc21 | 2100 |  |

More lines, in order of falling IC50 [1], values ahead:

| IC50 [1] [nM] | SMILES | further results |
| --- | --- | --- |
| 1800 | CN[C@H]1CC[C@@H](c2ccc(Cl)c(Cl)c2)c2cc([S+](C)[O-])ccc21 (some centres not stated) |  |
| 1500 | CNC(=O)c1cccc2c1[C@@H](NC)CC[C@H]2c1ccc(Cl)c(Cl)c1 |  |
| 1250 | CN[C@H]1CC[C@@H](c2ccc(Cl)c(Cl)c2)c2ccc(C(=O)OC)cc21 |  |
| 1250 | CN[C@H]1CC[C@@H](c2ccc(Cl)c(Cl)c2)c2ccc(S(=O)(=O)NC)cc21 | logD [5]: 2.8 |
| 1150 | CN[C@H]1CC[C@@H](c2ccc(Cl)c(Cl)c2)c2cccc(C(N)=O)c21 |  |
| 1100 | CN[C@H]1CC[C@@H](c2ccc(Cl)c(Cl)c2)c2cc(C(N)=O)ccc21 |  |
| 980 | CN[C@H]1CC[C@@H](c2ccc(Cl)c(Cl)c2)c2ccc(CO)cc21 |  |
| 960 | CN[C@H]1CC[C@@H](c2ccc(Cl)c(Cl)c2)c2ccc(CNS(C)(=O)=O)cc21 |  |
| 920 | CN[C@H]1CC[C@@H](c2ccc(Cl)c(Cl)c2)c2ccc(CC(N)=O)cc21 |  |
| 880 | CN[C@H]1CC[C@@H](c2ccc(Cl)c(Cl)c2)c2cccc(C(=O)O)c21 |  |
| 770 | CN[C@H]1CC[C@@H](c2ccc(Cl)c(Cl)c2)c2ccc(S(N)(=O)=O)cc21 | half-life [2]: > 2 h; bioavailability [11]: 44%; logD [5]: 2.3; half-life [12]: 4 h; pKa [6]: 8.4; half-life [9]: > 2 h; Vd [13]: 19 L/kg; clearance [14]: 60 mL/min/kg; Tmax [15]: 1 h; Vdss (Rattus norvegicus [16]): 600 L/kg |
| 760 | CN[C@H]1CC[C@@H](c2ccc(Cl)c(Cl)c2)c2ccc(-n3cncn3)cc21 |  |
| 650 | CN[C@H]1CC[C@@H](c2ccc(Cl)c(Cl)c2)c2ccc(-n3ccnn3)cc21 |  |
| 540 | CN[C@H]1CC[C@@H](c2ccc(Cl)c(Cl)c2)c2ccc(S(=O)(=O)NCCO)cc21 |  |
| 450 | CN[C@H]1CC[C@@H](c2ccc(Cl)c(Cl)c2)c2ccc(C[S+](C)[O-])cc21 (some centres not stated) |  |
| 410 | CN[C@H]1CC[C@@H](c2ccc(Cl)c(Cl)c2)c2ccc(C(N)=O)cc21 | logD [5]: 2.3; pKa [6]: 8.5 |
| 310 | CN[C@@H]1CC[C@@H](c2ccc(Cl)c(Cl)c2)c2ccc(S(N)(=O)=O)cc21 |  |
| 310 | CN[C@@H]1CC[C@H](c2ccc(Cl)c(Cl)c2)c2ccc(S(N)(=O)=O)cc21 |  |
| 60 | CN[C@H]1CC[C@@H](c2ccc(Cl)c(Cl)c2)c2ccc(NS(C)(=O)=O)cc21 |  |
| 11 | CN[C@H]1CC[C@H](c2ccc(Cl)c(Cl)c2)c2ccc(S(N)(=O)=O)cc21 |  |
